Experimental data: patent US6358973B1, “Benzazine derivatives as phosphodiesterase 4 inhibitors” (Zambon Group S.p.A., priority 1998, dated 2002)

Experiments:
PDE 4 enzyme = PDE 4 enzyme inhibition (SPA, Amersham kit); assay type: biochemical; conditions: PDE 4 purified from human PMNs; cAMP 1 μM; 40 minutes at 30° C.; 9 concentrations
From the text: Evaluation of the PDE 4 Enzyme Inhibition a) Purification of Human Polymorphonucleate Leukocytes
The polymorphonucleate leukocytes (PMNs) were isolated from peripheral blood of healthy volunteers according to what described by Boyum A., Scand. J. Immunol., 1976, 5th suppl., 9). Shortly, the isolation of the PMNs was effected by Ficoll-Paque gradient centrifugation followed by sedimentation on dextrane and the erythrocyte contamination was eliminated by hypotonic lysis. […]
b) PDE 4 Enzyme Purification
The human PMNs were re-suspended in TRIS/HCl buffer (10 mM pH 7.8) containing MgCl2 (5 mM), EGTA (4 mM), mercaptoethanol (5 mM), TRITON-X100 (1%), pepstatin A (1 μM), PMSF (100 μM) and leupeptin (1 μM), and homogenised by Polytron. […]
The enzyme activity was evaluated with an Amersham kit based on the SPA (Scintillation Proximity Assay) technique. […] The radioactivity due to the particles was measured in a β-emitting counter. The results are expressed as percent activity versus the control present in each experiment. The IC50 values were calculated over 9 concentrations equidistant in logarithmic scale using a 4-parameters logistic function by software.

| Structure (SMILES) | melting point | IC50 (PDE 4 enzyme) [nM] |
| --- | --- | --- |
| COc1ccc2c(c1)C(CC1CCCC1)CN=C2Cc1c(Cl)cncc1Cl.Cl.Cl (stereo not drawn) | 162 to 164 °C (dec.) | – |
| COc1cccc2c1C(Cc1c(Cl)cncc1Cl)=NCC2CC1CCCC1.Cl.Cl (stereo not drawn) | 189 to 190 °C (dec.) | – |
| COc1ccc2c(c1)C(CCCCCCc1ccccc1)CN=C2Cc1c(Cl)cncc1Cl.Cl.Cl (stereo not drawn) | 135 to 137 °C (dec.) | – |
| COc1cccc2c1C(Cc1c(Cl)cncc1Cl)=NCC2CCCCCCc1ccccc1.Cl.Cl (stereo not drawn) | 117 to 119 °C (dec.) | – |
| COc1ccc2c(c1CC1CCCC1)CCN=C2Cc1c(Cl)cncc1Cl [Compound 20, 5-Cyclopentylmethyl-1-(3,5-dichloro-pyridin-4-ylmethyl)-6-methoxy-3,4-dihydro-isoquinoline] | – | 35.9 ± 4.7 |
| COc1ccc2c(c1)c(-c1ccccc1)cc(=O)n2Cc1c(Cl)cncc1Cl [Compound 23, 1-(3,5-Dichloropyridin-4-ylmethyl)-6-methoxy-4-phenyl-1H-quinolin-2-one] | 191 to 192 °C | – |
